The supplement of paper PMC3974653
Counter-ions that a name gives are not always drawn.

Test system: MTT (mouse pheochromocytoma)
Test: IC50 of cell viability (ATP content)
Settings: (24 or 48 h)
Summary of the method: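 After overnight culture at 37°C, 5% CO2 in white 1536-well plates, MTT mouse pheochromocytoma cells were given 23 nl of library compound in DMSO by pintool across 8 concentrations, spanning final 0.5 nM to 46 µM. Following 24 or 48 hrs, CellTiter-Glo luminescence was read after 15 minutes and normalised against positive-control (100%) and DMSO (0%) wells. A four-parameter logistic model provided the IC50.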

IC50 of cell viability [µM]	SMILES
> 46	CC(CC(c1ccccc1)c1ccccc1)NC(C)(C)C (stereo not given) [Terodiline hydrochloride]
> 46	CCCCC[C@H](O)/C=C/[C@@H]1[C@H]2C/C(=C/CCCC(=O)[O-])O[C@H]2C[C@H]1O [EPOPROSTENOL SODIUM]
> 46	CCCCCCCCCCCCCCCCCCOC[C@H](COP(=O)([O-])OCC[N+](C)(C)C)OC [ET-18-OCH3]
> 46	Cc1c(-c2ccc(O)cc2)n(Cc2ccc(OCCN3CCCCCC3)cc2)c2ccc(O)cc12 [Bazedoxifene]
> 46	Cc1nnc(N[S+](=O)([O-])c2ccc(N)cc2)s1 [Sulfamethizole]
> 46	CCCc1ncc(C[n+]2ccccc2C)c(N)n1.Cl.[Cl-] [Amprolium hydrochloride]
> 46	CCC(=O)OCC(=O)[C@@]1(OC(=O)CC)[C@H](C)C[C@@H]2[C@@H]3[C@H](Cl)C\C4=C\C(=O)\C=C/[C@@]4(C)[C@H]3[C@@H](O)C[C@@]12C [Alclometasone dipropionate]
> 46	C=CCSCC1Nc2cc(Cl)c([S+](N)(=O)[O-])cc2[S+](=O)([O-])N1 (stereo not given) [ALTHIAZIDE]
> 46	CCC(C)(C)c1ccc(CC(C)CN2C[C@@H](C)O[C@@H](C)C2)cc1 (stereo not given in full) [AMOROLFINE HYDROCHLORIDE]
> 46	O=[S+]([O-])(O)CCC[S+](=O)([O-])O.[NaH] [1,3-PROPANEDISULFONIC ACID, DISODIUM SALT]
> 46	CCN1\N=C(\C(O)=O)C(=O)C2=C1C=C3OCOC3=C2 [Cinoxacin]
> 46	O=C(NCC1CCCCN1)c1cc(OCC(F)(F)F)ccc1OCC(F)(F)F (stereo not given) [FLECAINIDE]
> 46	Oc1ccc(C(O)CNCCCCCCNCC(O)c2ccc(O)c(O)c2)cc1O (stereo not given) [HEXOPRENALINE SULFATE]
> 46	COc1cc(N[S+](=O)([O-])c2ccc(N)cc2)ncn1 [Sulfamonomethoxine]
> 46	O=C(O)/C=C/c1ccccc1 [CINNAMIC ACID]
> 46	CC(CN1c2ccccc2Sc2ccc([S+](=O)([O-])N(C)C)cc21)N(C)C (stereo not given) [Dimethothiazine]
> 46	CSC1=CC=C(C=C1)C(=O)\C2=C(/C)NC(=O)N2 [Enoximone]
> 46	CCCCCCOc1ccccc1C(N)=O [EXALAMIDE]
> 46	CN(Cc1ccc(C(C)(C)C)cc1)Cc1cccc2ccccc12 [Butenafina]

IC50 of cell viability [µM]	SMILES
> 46	COC(=O)CCC(=O)CN [METHYL AMINOLEVULINATE HYDROCHLORIDE]
> 46	Cc1cccc(Nc2ccncc2[S+](=O)([O-])NC(=O)NC(C)C)c1 [Torsemide]
> 46	N\C1=N\C2=C(N(CC=C)C(=O)N2C3OC(CO)C(O)C3O)/C(=O)N1 (stereo not given) [LOXORIBINUM]
> 46	COc1ccccc1N1CCN(CCCCNC(=O)c2ccc(-c3ccc(C(C)=O)cc3)cc2)CC1
> 46	C[S+](=O)([O-])CCNCc1ccc(-c2ccc3ncnc(Nc4ccc(OCc5cccc(F)c5)c(Cl)c4)c3c2)o1 [LAPATINIB TOSILATE HYDRATE]
> 46	CN1CCN(CC1)C2=C(F)C=C3C(=O)\C(=C/N4CCSC2=C34)C(O)=O [RUFLOXACINUM]
> 46	Cc1ccc(S(=O)(=O)[O-])cc1C [Sodium xylenesulfonate]
> 46	CC(C)=CCCC(C)=CCCC(C)=CCC/C=C(\C)CC/C=C(\C)CCC=C(C)C (stereo in doubt) [Squalene]
> 46	O=C1OCCN1/N=C/c1ccc([N+](=O)[O-])o1 [Furazolidone]
> 46	CC(C(=O)O)c1ccc2c(c1)[nH]c1ccc(Cl)cc12 (stereo not given) [CARPROFEN]
> 46	CN1CCC(CC1)=C2C3=C(C=CC=C3)\C=C/C4=C2C=CC=C4 [CYPROHEPTADINE]
> 46	C[C@@H]1C[C@@H]2[C@H]3CC\C4=C\C(=O)\C=C/[C@]4(C)[C@]3(F)[C@@H](O)C[C@@]2(C)[C@@]1(O)C(=O)COC(C)=O [Dexamethasone acetate]
> 46	[Na+].[Na+].CC1CC2C3CCC/4=C/C(=O)/C=C\[C@@]4(C)[C@]3(F)C(O)C[C@]2(C)[C@]1(O)C(=O)CO[P]([O-])([O-])=O (stereo not given in full) [DEXAMETHASONE SODIUM PHOSPHATE]
> 46	CC(C)[N+]1(C)[C@@H]2CC[C@H]1CC(OC(=O)C(CO)c1ccccc1)C2 (stereo not given in full) [Ipratropium bromide monohydrate]
> 46	CCN1CCC[C@@H]1CNC(=O)c1cc([S+](=O)([O-])CC)ccc1OC [Sultopride Hydrochloride]
> 46	FCOC(C(F)(F)F)C(F)(F)F [SEVOFLURANE]
> 46	COc1ncnc(N[S+](=O)([O-])c2ccc(N)cc2)c1OC [Sulfadoxine]
> 46	COc1cc(/C=C2\CCC/C(=C\c3ccc(O)c(OC)c3)C2=O)ccc1O [Ciclovalona]

SMILES	IC50 of cell viability [µM]
C[C@]12CCC(=O)C[C@@H]1CC[C@@H]1[C@@H]2CC[C@]2(C)[C@@H](O)CC[C@@H]12 [5alpha-Androstan-17beta-ol-3-one]	> 46
CCNC(C)Cc1cccc(C(F)(F)F)c1 (single isomer, unassigned; (-)) [(-)-Fenfluramine]	> 46
CC(Cc1ccccc1)N(C)C (stereo not given) [DIMETAMFETAMINUM]	> 46
CN1C2CCC1CC(OC(c1ccccc1)c1ccccc1)C2.O=[S+]([O-])(O)O (stereo not given) [BENZTROPINE]	> 46
CC[N+](CC)(CC)CC.[Cl-] [Tetraethylammonium chloride]	> 46
CCCC(C)C1(CC)C(=O)N\C(=N/C1=O)O (stereo not given) [PENTOBARBITAL]	> 46
C[C@]12CCC3[C@@H](CCC4=CC(=O)CC[C@@]43C)C1CCC2OC(=O)CCc1ccccc1 (stereo not given in full) [Testosterone 17-phenylpropionate]	> 46
C[C@H]1[C@H](O)[C@@H](C)/C=C/C=C/CC/C=C/C=C/C=C/C=C/[C@H](O[C@@H]2O[C@H](C)[C@@H](O)[C@H](N)[C@@H]2O)C[C@@H]2O[C@](O)(C[C@@H](O)[C@H](O)CC[C@@H](O)C[C@@H](O)C[C@@H](O)CC(=O)O[C@H]1C)C[C@H](O)[C@H]2C(=O)O [Nystatin]	> 46
CN1C=C(C2=CC=CC=C12)C3=C(/C(=O)NC\3=O)C4=CN(C5CCN(CC6=NC=CC=C6)CC5)C7=C4C=CC=C7 [Enzastaurin]	> 46
COc1ccc2c(C(=O)c3ccc(Cl)cc3)c(C)n(CC(=O)O)c2c1 [Clometacine]	> 46
CCOC1=C2O[C@H]3[C@@H](O)\C=C/[C@H]4[C@H]5CC(=C2[C@@]34CCN5C)C=C1 [ETHYLMORPHINE HYDROCHLORIDE]	> 46
C[C@]12C=CC(=O)C=C1CC[C@@H]1C2CC[C@]2(C)OC(=O)CCC12 (stereo not given in full) [Testolactone]	> 46
CC(C)(C)NCC(O)c1ccccc1Cl.Cl (stereo not given) [TULOBUTEROL]	> 46
